In patent US20170275287A1, “NOVEL N2, N4, N7, 6-TETRASUBSTITUTED PTERIDINE-2,4,7-TRIAMINE AND 2, 4, 6, 7-TETRASUBSTITUTED PTERIDINE COMPOUNDS AND METHODS OF SYNTHESIS AND USE THEREOF” (Janus Biotherapeutics, Inc., priority 2014, published 2017):
≈ marks a conversion by molar mass, not a printed value. Read-outs that look alike come from different tables or passages of the source.

Assays:
Hep-G2 cells = experiment: Cell viability, Hep-G2 cells (CEREP); type: cell-based
Experimental: (§1) Preliminary screening measures were conducted by CEREP. All values fall within acceptable limits (Table 5). Solubility assays where performed by CEREP, Seattle, Wash., according to Lipinski, C. A. et al., 1997, Adv. Drug Del. Rev., 46:3-26. Protein binding assays where performed by CEREP, Seattle, Wash., according to Banker, M. J. et al., 2003, J. Pharm. Sci., 92:967-974. Permeability assays where performed by CEREP, Seattle, Wash. according to Hildalgo, I. J., 1998, Gastroenterology, 96:736-749. Metabolic stability assays where performed by CEREP, Seattle, Wash., according to Obach, R. S. et al., 1997, J. Pharmacol. Exp. Ther., 283:46-58. P-glycoprotein inhibition assays where performed by CEREP, Seattle, Wash., according to Polli, J. W. et al., 2001, J. Pharm. Exp. Ther., 299:620-628. Cell viability assays where performed by CEREP, Seattle, Wash., according to Mosmann, T., 1983, J. Immunol. Met. 65:55-62. hERG automated patch clamp assays where performed by CEREP, Seattle, Wash., according to Mathes, C., 2006, Expert Opin. Ther. Targets, 10:230-241.

[1] = Aqueous solubility (CEREP); type: physicochemical
Experimental: as §1

[2] = test system: M (non-selective) Muscarinic Receptor; experiment: Receptor cross-reactivity binding panel (CEREP)
Description: The receptor cross-reactivity profile is composed of 71 binding and 27 enzyme assays. The binding assay panel is broadly defined with roughly an equal number of selective, central and peripheral therapeutically relevant targets. The enzyme assay panel includes the most representative targets from diverse enzyme families with a particular focus on phosphatases and specific enzymes involved in cell cycle regulation. Assays where performed by CEREP, Seattle, Wash., with protocols similar to Cordeaux, Y. et al., 2004 Brit. J. Pharmacol., 143:705-714. JB6121 was tested for receptor cross reactivity at 10 μM for approximately 100 receptors and enzymes. Any % inhibition greater than 50% (IC50<10 μM) is highlighted below in Table 7.

With CN1CCN(c2nc(NCCN3CCOCC3)c3nc(Cl)c(NCCN4CCOCC4)nc3n2)CC1 [JB6121, 6-chloro-2-(4-methylpiperazin-1-yl)-N^4,N^7-bis(2-morpholinoethyl)pteridine-4,7-diamine] as the molecule, how does the “Cell Viability, Hep-G2 cells, % inhibition at 100 μM” value (Hep-G2 cells) read?
Its value is 8.5%.

What about the solubility ([1]; PBS, pH 7.4, aqueous buffer, read-out: Aqueous Solubility, PBS, pH 7.4) of the same molecule?
Its solubility is over 200 µM.

And the solubility ([1]; simulated gastric fluid, read-out: Aqueous Solubility, simulated Gastric Fluid)?
The solubility was over 200 µM.

What about the solubility ([1]; simulated intestinal fluid, fassgf or other biorelevant, read-out: Aqueous Solubility, simulated Intestinal Fluid) of the same molecule?
Its solubility is 195 µM (≈ 102 µg/mL).

What about the “% Ligand Inhibition, M (non-selective) Muscarinic Receptor” value ([2]; 10 μM) of the same molecule?
Its value is 63.1%.

And the IC50 ([2]; most-likely, estimated from 10 μM result)?
The IC50 was over 5 µM.
